In the NIST ThermoML archive (doi:10.1016/j.jct.2012.08.010):

Experiment: refractive index (Na D-line) (dimensionless); φn = volume fraction of the nth substance listed
Conditions: 101 kPa, Liquid, Standard Abbe refractometry

C=C[Si]1(C)O[Si](C)(C=C)O[Si](C)(C=C)O[Si](C)(C=C)O1 (stereo not given) [2,4,6,8-tetramethyl-2,4,6,8-tetravinylcycloterasiloxane] + Cc1ccc(C)cc1
Conditions | refractive index
288.15 K, φ1 = 0.13 | 1.49061
288.15 K, φ1 = 0.2483 | 1.48349
288.15 K, φ1 = 0.3379 | 1.47804
288.15 K, φ1 = 0.4151 | 1.47284
288.15 K, φ1 = 0.4853 | 1.46901
288.15 K, φ1 = 0.5501 | 1.46502
288.15 K, φ1 = 0.5978 | 1.46207
288.15 K, φ1 = 0.6522 | 1.45876
288.15 K, φ1 = 0.6974 | 1.45592
288.15 K, φ1 = 0.738 | 1.45339
288.15 K, φ1 = 0.7753 | 1.45103
288.15 K, φ1 = 0.8083 | 1.44898
288.15 K, φ1 = 0.8395 | 1.44696
288.15 K, φ1 = 0.8652 | 1.44534
288.15 K, φ1 = 0.8938 | 1.44353
288.15 K, φ1 = 0.9184 | 1.44195
288.15 K, φ1 = 0.9358 | 1.44086
288.15 K, φ1 = 0.9803 | 1.43802
288.15 K, φ1 = 1 | 1.43674
298.15 K, φ1 = 0.13 | 1.48533
298.15 K, φ1 = 0.2483 | 1.47825
298.15 K, φ1 = 0.338 | 1.47286
298.15 K, φ1 = 0.4151 | 1.46772
298.15 K, φ1 = 0.4854 | 1.46393
298.15 K, φ1 = 0.5501 | 1.45998
298.15 K, φ1 = 0.5979 | 1.45705
298.15 K, φ1 = 0.6522 | 1.45378
298.15 K, φ1 = 0.6975 | 1.45098
298.15 K, φ1 = 0.7381 | 1.44845
298.15 K, φ1 = 0.7754 | 1.44612
298.15 K, φ1 = 0.8084 | 1.44409
298.15 K, φ1 = 0.8396 | 1.44211
298.15 K, φ1 = 0.8653 | 1.44053
298.15 K, φ1 = 0.8939 | 1.43869
298.15 K, φ1 = 0.9185 | 1.43716
298.15 K, φ1 = 0.9358 | 1.43605
298.15 K, φ1 = 0.9803 | 1.43326
298.15 K, φ1 = 1 | 1.43202
308.15 K, φ1 = 0.13 | 1.47996
308.15 K, φ1 = 0.2484 | 1.47298
308.15 K, φ1 = 0.338 | 1.46767
308.15 K, φ1 = 0.4152 | 1.46256
308.15 K, φ1 = 0.4855 | 1.45883
308.15 K, φ1 = 0.5502 | 1.45494
308.15 K, φ1 = 0.5979 | 1.45204
308.15 K, φ1 = 0.6523 | 1.44878
308.15 K, φ1 = 0.6975 | 1.446
308.15 K, φ1 = 0.7381 | 1.44353
308.15 K, φ1 = 0.7754 | 1.44126
308.15 K, φ1 = 0.8084 | 1.4392
308.15 K, φ1 = 0.8396 | 1.43729
308.15 K, φ1 = 0.8653 | 1.4357
308.15 K, φ1 = 0.8939 | 1.43391
308.15 K, φ1 = 0.9185 | 1.43239
308.15 K, φ1 = 0.9359 | 1.43132
308.15 K, φ1 = 0.9803 | 1.42853
308.15 K, φ1 = 1 | 1.4273
318.15 K, φ1 = 0.1301 | 1.47462
318.15 K, φ1 = 0.2484 | 1.46772
318.15 K, φ1 = 0.3381 | 1.46245
318.15 K, φ1 = 0.4152 | 1.45742
318.15 K, φ1 = 0.4855 | 1.45373
318.15 K, φ1 = 0.5503 | 1.4499
318.15 K, φ1 = 0.598 | 1.44702
318.15 K, φ1 = 0.6523 | 1.4438
318.15 K, φ1 = 0.6976 | 1.44108
318.15 K, φ1 = 0.7381 | 1.43861
318.15 K, φ1 = 0.7755 | 1.43636
318.15 K, φ1 = 0.8084 | 1.43432
318.15 K, φ1 = 0.8396 | 1.43244
318.15 K, φ1 = 0.8653 | 1.43087
318.15 K, φ1 = 0.8939 | 1.42911
318.15 K, φ1 = 0.9185 | 1.42761
318.15 K, φ1 = 0.9359 | 1.42653
318.15 K, φ1 = 0.9803 | 1.42379
318.15 K, φ1 = 1 | 1.42257
328.15 K, φ1 = 0.1301 | 1.46923
328.15 K, φ1 = 0.2484 | 1.46244
328.15 K, φ1 = 0.3381 | 1.45725
328.15 K, φ1 = 0.4152 | 1.45229
328.15 K, φ1 = 0.4855 | 1.44864
328.15 K, φ1 = 0.5503 | 1.44483
328.15 K, φ1 = 0.598 | 1.44202
328.15 K, φ1 = 0.6523 | 1.43879
328.15 K, φ1 = 0.6976 | 1.43612
328.15 K, φ1 = 0.7382 | 1.43369
328.15 K, φ1 = 0.7755 | 1.43148
328.15 K, φ1 = 0.8085 | 1.42949
328.15 K, φ1 = 0.8396 | 1.42761
328.15 K, φ1 = 0.8653 | 1.42605
328.15 K, φ1 = 0.8939 | 1.42343
328.15 K, φ1 = 0.9185 | 1.42282
328.15 K, φ1 = 0.9359 | 1.42178
328.15 K, φ1 = 0.9803 | 1.41906
328.15 K, φ1 = 1 | 1.41785
